According to EP0738149B1 (priority 1994, dated 1995):
Counter-ions that a name gives are not always drawn. Like-named read-outs stand apart in the source and are kept apart here.

Columns and labels:
mice [1] = assay: Maximal electroshock (MES) model in mice, i.p.;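 on all read-outs here: Electroshock-induced convulsion model serving to demonstrate antiepileptic efficacy against generalized and partial seizures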; assay type: in vivo; settings: for ED50: Mus musculus, ip; for ED50 / MICE MES ED50: Table 15; for MICE MES ED50: i.p.; for activity in the MES model in mice: statement in words
mice [2] = settings: for MICE scMet ED50: i.p.; for ED50: Mus musculus, ip
[3] = Neurotoxicity in mice (rotorod ataxia test), i.p.; settings: mouse, in vivo, ip
Experimental: (§1) Neurotoxicity of the claimed agents was also assessed in mice (i.p. administration) by the rotorod ataxia test and/or in rats (p.o. administration) by positional sense test and gait stance test. […] The term quantitating the neurotoxicity is the medial neurological toxic dose (TD50), was determined in the above tests.

mice [4] = assay: Neurotoxicity in mice (rotorod ataxia test), i.p.
Experimental: as §1

rats [5] = assay: Maximal electroshock (MES) model in rats, p.o.;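 on all read-outs here: rat MES model gauging antiepileptic efficacy versus generalized and partial seizures after oral dosing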; assay type: in vivo; settings: Table 15; for ED50: Rattus norvegicus, po
in vivo = settings: rat, in vivo, po
Experimental: as §1

rats [6] = assay: Neurotoxicity in rats (positional sense test and gait stance test), p.o.; settings: rats, p.o.
Experimental: as §1

rats [7] = settings: Rattus norvegicus, po, read-out: RATS scMet ED50
[8] = test system: mechanically dissociated neonatal rat cerebellum; assay: Reversal of NMDA induced cell death in cultures of neonatal rat cerebellum; assay type: cell-based; settings: for SURVIVING CELL IN CULTURE: relative to control (100%); for PERCENT PROTECTION: Cell Survival minus the NMDA effect; for EFFECTIVE PROTECTION: X x 100/70
Experimental: The cerebellum was aseptically dissociated from 6 or 7-day old rat pups and placed in a 15ml sterile plastic conical tube containing 3ml of Dulbecco's modified Eagle's medium (DMEM) with a high glucose concentration ([…]) and 2mM (v/v) L-glutamine and an antibiotic antimitotic mixture. The cerebella were then dissociated after 20-25 passages through a sterile 13 gauge, 10cm long stainless steel needle attached to a 5ml syringe with an inserted 45 micrometer pore nylon sieve. The dissociated cells were centrifuged at 200g for 5 minutes. The supernatant was discarded and the cells resuspended in medium enriched with 15% (v/v) heat inactivated fetal calf serum. Cell viability was determined by the tryptan blue exclusion test.
Cells were plated at a density of 200/mm^2 on poly-L-lysine coated surfaces. Poly-L-lysine coated glass coverslips were prepared at least one hour in advance of plating by immersing sterile coverslips in sterile distilled water solution containing 15 microgram/ml poly-L-lysine, and washing in sterile water just prior to use. The plated cells were covered with enriched medium and incubated at 37°C in an atmosphere of 5% CO2 in air and 97% humidity. After three days in culture, the media was replaced with media containing the desired test compound. Each test compound was tested in duplicate. Toxic-dose response was determined for each compound.
Four groups were run in each set of experiments; • I. Control, consisting of enriched media alone, • II. N-methyl-D-aspartate (NMDA, 1mM for 3 hours) as the cytotoxic challenge, • III. Test compound plus NMDA, and • IV. Positive control, spermine(0.01 micromoles) plus NMDA.
Nerve cell survival was evaluated by phase contrast microscopy and tryptan blue staining after 24 hours.
Surviving cells in culture are measured relative to control (100%), as described above. Percent protection is the Cell Survival for the test compound minus the NMDA effect. Thus, maximal protection is 100% minus 30% NMDA effect i.e. […]. The Effective Protection was calculated as the percent of the Percent Protection (X) divided by the maximal protection value (e.g. X x 100/70).

Male mongolian gerbils = assay: Global brain ischemia in gerbils (CA1 pyramidal neurons); assay type: in vivo; settings: 3 injections, fraction of hippocampi protected from ischemia, 14 days post-ischemia
Experimental: Each artery was clamped for 5 minutes with aneurysm clips to produce global brain ischemia. The anesthesia was discontinued upon clamping. After 5 minutes the clamps were removed and the wound closed with skin clips.
For treatment, the test compound or vehicle were injected intra-peritoneally (ip) in a volume of 50 microliters of solvent per 10g body weight. The first injection was given two minutes after clamp removal, and thereafter daily for the next 2 post-operative days (total of 3 injections).
Seven groups each of 4-8 animals were compared: • I. Control; (sham- or unoperated and saline treated), • II. Vehicle treated, unoperated (when solvent is other than saline), • III. Ischemia - untreated or saline treated), • IV. Ischemia - vehicle treated (when solvent is other than saline), • V. Ischemia - Test compound treated, one sub-group per concentration tested, • VI. Ischemia and pentobarbital (40 mg/kg) as positive control).
Analysis of neuronal damage was performed 14 days post-ischemia by counting pyramidal neurons throughout the CA1 layer of the anterior hippocampus in […] thick (paraffin) coronal brain sections stained with hematoxylin and erosin.
Percent Protection values represent the fraction of hippocampi protected from ischemia in a group of animals treated with the stated dose of compound.

male ICR albino mice = assay: Hypobaric hypoxia survival time in mice; assay type: in vivo
Experimental: Dessicator B was disconnected and allowed to equilibrate with room air whilst dessicator A was evacuated to a pressure of 100mmHg. […] The survival time from the moment of induction of hypoxia to the time of cessation of respiration was recorded for each mouse for a maximum of 15 minutes after which time room air was reintroduced to dessicator B. Survivors were monitored for signs of lethargy or vitality.
Effect of drug treatment was assessed as the percent of the survival time of the drug treated group with respect to the saline injected or vehicle injected control group. Control groups were run twice, before and after each experimental group and consisted of 12-16 mice in groups of 4 mice. Each experimental group always consisted of 4 mice to ensure a constant residual volume of oxygen in all tests. The effect of each dose of test drug was determined in duplicate i.e. two groups of 4 mice.
All drugs were administered intra-peritoneally at the dose indicated one hour prior to exposure to hypoxia.

[9] = read-out: MICE scMet ED50, mice, i.p., Table 16
[10] = rats, p.o., read-out: RATS MES 50
[11] = read-out: RATS MES 50, rats, p.o.

## NC(=O)CNC1CCc2ccccc21 (racemic) [Example 3, (rac)-N-(2-Acetamido)-1-aminoindan.HCl]
Mice [1]
  ED50: 83 mg/kg
  MICE MES ED50: <100 mg/kg
Mice [2]; Table 16
  MICE scMet ED50: 36 mg/kg
Mice [2]; Table 16, listed as 3*
  MICE scMet ED50: >130 mg/kg
[3]; MICE TD50, mice, Table 15
  TD50: 127 mg/kg
[3]; MICE TD50, mice, Table 16
  TD50: 127 mg/kg
Mice [4]; mice, i.p., Table 15
  MICE TD50: >100 mg/kg
Mice [4]; mice, i.p., Table 16
  MICE TD50: 126 mg/kg
Rats [5]; rats, p.o.
  RATS MES 50: <50 mg/kg
In vivo
  TD50: > 50 mg/kg

## NC(=O)CNC1CCc2ccc(F)cc21 (racemic) [Example 5, (rac)-6-Fluoro-N-(2-acetamido)-1-aminoindan.HCl]
Mice [1]
  ED50: < 100 mg/kg
  MICE MES ED50: 58 mg/kg
  activity in the MES model in mice: showed activity
Mice [2]; [9]
  ED50: > 200 mg/kg
[3]; MICE TD50, mice, Table 16
  TD50: 138 mg/kg
Mice [4]; mice, i.p., Table 15
  MICE TD50: >300 mg/kg

## O=CNC1CCc2ccccc21 (racemic) [Example 8, (rac)-N-Formyl-1-aminoindan]
Rats [5]; [10]
  ED50: 24 mg/kg
In vivo
  TD50: > 500 mg/kg
Rats [6]; Table 16
  RATS TD50: >500 mg/kg
Rats [7]
  ED50: > 250 mg/kg

## COc1ccc2c(c1)C(NC(C)=O)CC2 (racemic) [Example 26, (rac) 6-methoxy-N-acetyl-1-aminoindan]
Rats [5]; [10]
  ED50: 40 mg/kg
In vivo
  TD50: > 500 mg/kg
Rats [6]; Table 16
  RATS TD50: >500 mg/kg
Rats [7]
  ED50: > 250 mg/kg

## O=C(NC1CCc2ccccc21)c1ccccc1 (racemic) [Example 46, (rac)-N-Benzoyl-1-aminoindan]
Mice [1]
  ED50: 82 mg/kg
Mice [2]; [9]
  ED50: > 500 mg/kg
[3]; MICE TD50
  TD50: 500 mg/kg
Mice [4]; mouse, in vivo, ip
  MICE TD50: >500 mg/kg

## Cl.NC(=O)CN[C@@H]1CCc2ccccc21 [D, (R)-Indanylglycinamide-HCl salt]
Mice [1]
  MICE MES ED50: 83 mg/kg
Mice [2]; Table 16
  MICE scMet ED50: >130 mg/kg
Mice [4]; mice, i.p., Table 15
  MICE TD50: 127 mg/kg
Mice [4]; mice, i.p., Table 16
  MICE TD50: 127 mg/kg
Rats [5]; rats, p.o.
  RATS MES 50: 105 mg/kg
Rats [6]; Table 15
  RATS TD50: >180 mg/kg
Rats [6]; Table 16
  RATS TD50: >180 mg/kg

## C#CCN[C@@H]1CCc2ccccc21.Cl [E, (R)-N-propargyl-1-aminoindan HCl salt]
Mice [1]
  ED50: 79 mg/kg
Rats [5]; [11]
  ED50: < 50 mg/kg
Rats [7]
  ED50: > 154 mg/kg

## NC(=O)CN[C@@H]1CCc2ccccc21 [Example 1, (R)-N-(2-Aeetamido)-1-aminoindan.HCl]
Mice [1]
  ED50: 77 mg/kg
Mice [2]; read-out: MICE scMet ED50
  ED50: > 200 mg/kg
[3]; MICE TD50, mice, Table 15
  TD50: 198 mg/kg
[3]; MICE TD50, mice, Table 16
  TD50: 198 mg/kg
Rats [5]; rats, p.o.
  RATS MES 50: 50 mg/kg
In vivo
  TD50: > 50 mg/kg
Rats [6]; Table 16
  RATS TD50: >50 mg/kg

## C#CCN[C@H]1CCc2ccccc21.CS(=O)(=O)O [H, (S)-N-propargyl-1-aminoindan mesylate salt]
Mice [1]
  ED50: ≤ 50 mg/kg
Mice [2]; read-out: MICE scMet ED50
  ED50: > 200 mg/kg
Rats [5]; [11]
  ED50: ≤ 50 mg/kg

## NC1CCc2ccc(F)cc21 (stereo not drawn) [I, 6-fluoro-1-aminoindan]
Mice [1]
  ED50: 66 mg/kg
[3]; MICE TD50
  TD50: 58 mg/kg
Mice [4]; mouse, in vivo, ip
  MICE TD50: 58 mg/kg
Rats [5]; [10]
  ED50: < 50 mg/kg
In vivo
  TD50: > 50 mg/kg
Rats [6]; Table 16
  RATS TD50: >50 mg/kg
Rats [7]
  ED50: > 100 mg/kg

## N[C@@H]1CCc2ccc(F)cc21 [J, (R)-6-fluoro-1-aminoindan]
[8]; 0.005 µM + NMDA 1mM for 3 hours
  SURVIVING CELL IN CULTURE: 108%
[8]; 0.005 µM + NMDA
  PERCENT PROTECTION: 78%
  EFFECTIVE PROTECTION: 111%
[8]; 0.010 µM + NMDA 1mM for 3 hours
  SURVIVING CELL IN CULTURE: 79%
[8]; 0.010 µM + NMDA
  PERCENT PROTECTION: 49%
  EFFECTIVE PROTECTION: 70%
[8]; 0.100 µM + NMDA 1mM for 3 hours
  SURVIVING CELL IN CULTURE: 62%
[8]; 0.100 µM + NMDA
  PERCENT PROTECTION: 32%
  EFFECTIVE PROTECTION: 46%
[8]; 1.000 µM + NMDA 1mM for 3 hours
  SURVIVING CELL IN CULTURE: 53%
[8]; 1.000 µM + NMDA
  PERCENT PROTECTION: 23%
  EFFECTIVE PROTECTION: 33%
[8]; 5.000 µM + NMDA 1mM for 3 hours
  SURVIVING CELL IN CULTURE: 60%
[8]; 5.000 µM + NMDA
  PERCENT PROTECTION: 30%
  EFFECTIVE PROTECTION: 43%
Male mongolian gerbils; 0.1 mg/kg ip
  PERCENT PROTECTION: 27.5%
Male mongolian gerbils; 1.0 mg/kg ip
  PERCENT PROTECTION: 25.0%
Male mongolian gerbils; 10.0 mg/kg ip
  PERCENT PROTECTION: 25.0%
Mice [1]
  ED50: 65 mg/kg
Male ICR albino mice; 50 mg/kg ip one hour prior to hypoxia
  PROTECTION % OF RESPECTIVE CONTROL: 305±185 % OF RESPECTIVE CONTROL
Male ICR albino mice; 100 mg/kg ip one hour prior to hypoxia
  PROTECTION % OF RESPECTIVE CONTROL: 241±56 % OF RESPECTIVE CONTROL
[3]; MICE TD50
  TD50: 78 mg/kg
Mice [4]; mouse, in vivo, ip
  MICE TD50: 78 mg/kg
Rats [5]; [10]
  ED50: < 50 mg/kg
In vivo
  TD50: > 50 mg/kg
Rats [6]; Table 16
  RATS TD50: >50 mg/kg
Rats [7]
  ED50: > 100 mg/kg

## C#CCNC1CCc2ccc(F)cc21 (stereo not drawn) [L, 6-fluoro-N-propargyl-1-aminoindan]
Mice [1]
  ED50: 74 mg/kg
  activity in the MES model in mice: showed activity
[3]; MICE TD50
  TD50: 188 mg/kg
Mice [4]; mouse, in vivo, ip
  MICE TD50: 188 mg/kg
Rats [5]; [10]
  ED50: 50 mg/kg
In vivo
  TD50: > 50 mg/kg
Rats [6]; Table 16
  RATS TD50: >50 mg/kg
Rats [7]
  ED50: > 300 mg/kg
